Results: patent US20240383901A1, “SUBSTITUTED PYRROLO[2,3-D]PYRIMIDINES, THEIR PREPARATION AND THEIR THERAPEUTIC APPLICATION” (SANOFI, priority 2021, published 2024)

Legend:
[1] = target: T1, full-length LRRK2 G2019S (Homo sapiens, UniProt Q5S007, G2019S); assay: LRRK2-G2019S kinase activity assay (Lanthascreen TR-FRET); type: biochemical; details: 1.1 mM ATP
T1 construct: DYKDDDDK (FLAG)
Procedure: (§1) The potency of compounds was evaluated in vitro using the Lanthascreen® technology (ThermoFisher Scientific).
(§2) In a typical experiment, the reaction assay buffer contains 50 mM Tris pH8.2, 1 mM EGTA, 2.5 mM MgCl2, 0.05% Triton X100, 0.15% BSA and 1 mM DTT. The detection of the assay is performed using 1 nM Terbium labeled anti-phospho-LRRKtide (ThermoFisher Scientific) diluted in a TR-FRET buffer (ThermoFisher Scientific).
(§3) The experimental procedure was performed with Greiner small volume® 384-well. […] The working solution of compounds was prepared in a separate Greiner microplate.
(§4) The kinase reaction was initiated by addition of the ATP/LRRKtide substrate mix diluted in the reaction assay buffer. The reaction mix was incubated for at least 10 minutes at room temperature (initial velocity conditions). Reaction was stopped by addition of Terbium labeled anti-phospho-LRRKtide diluted into the detection buffer supplemented with EDTA (ThermoFisher Scientific). Plates are incubated for at least 30 minutes at room temperature and read on an Envision™ multimode plate reader (PerkinElmer) with LanthaScreen™. The TR-FRET 520:495 nm emission ratio was calculated and used to determine the IC50 value from a dose response curve fit to the 4-parameter logistic equation. The activity with respect to LRRK2 kinase in this test is given by the concentration which inhibits 50% of the LRRK2 activity (or IC50) in nM.

[2] = target: T2, full-length LRRK2 wild type (Homo sapiens, UniProt Q5S007); assay: LRRK2 WT assay (Assay A, Lanthascreen TR-FRET, 500 uM ATP); type: biochemical; details: Assay A (values without *)
T2 construct: DYDDDDK tagged full-length LRRK2 wild type is used
Procedure: as §1, §2, §3, §4

T2 sequence (Q5S007 whole entry): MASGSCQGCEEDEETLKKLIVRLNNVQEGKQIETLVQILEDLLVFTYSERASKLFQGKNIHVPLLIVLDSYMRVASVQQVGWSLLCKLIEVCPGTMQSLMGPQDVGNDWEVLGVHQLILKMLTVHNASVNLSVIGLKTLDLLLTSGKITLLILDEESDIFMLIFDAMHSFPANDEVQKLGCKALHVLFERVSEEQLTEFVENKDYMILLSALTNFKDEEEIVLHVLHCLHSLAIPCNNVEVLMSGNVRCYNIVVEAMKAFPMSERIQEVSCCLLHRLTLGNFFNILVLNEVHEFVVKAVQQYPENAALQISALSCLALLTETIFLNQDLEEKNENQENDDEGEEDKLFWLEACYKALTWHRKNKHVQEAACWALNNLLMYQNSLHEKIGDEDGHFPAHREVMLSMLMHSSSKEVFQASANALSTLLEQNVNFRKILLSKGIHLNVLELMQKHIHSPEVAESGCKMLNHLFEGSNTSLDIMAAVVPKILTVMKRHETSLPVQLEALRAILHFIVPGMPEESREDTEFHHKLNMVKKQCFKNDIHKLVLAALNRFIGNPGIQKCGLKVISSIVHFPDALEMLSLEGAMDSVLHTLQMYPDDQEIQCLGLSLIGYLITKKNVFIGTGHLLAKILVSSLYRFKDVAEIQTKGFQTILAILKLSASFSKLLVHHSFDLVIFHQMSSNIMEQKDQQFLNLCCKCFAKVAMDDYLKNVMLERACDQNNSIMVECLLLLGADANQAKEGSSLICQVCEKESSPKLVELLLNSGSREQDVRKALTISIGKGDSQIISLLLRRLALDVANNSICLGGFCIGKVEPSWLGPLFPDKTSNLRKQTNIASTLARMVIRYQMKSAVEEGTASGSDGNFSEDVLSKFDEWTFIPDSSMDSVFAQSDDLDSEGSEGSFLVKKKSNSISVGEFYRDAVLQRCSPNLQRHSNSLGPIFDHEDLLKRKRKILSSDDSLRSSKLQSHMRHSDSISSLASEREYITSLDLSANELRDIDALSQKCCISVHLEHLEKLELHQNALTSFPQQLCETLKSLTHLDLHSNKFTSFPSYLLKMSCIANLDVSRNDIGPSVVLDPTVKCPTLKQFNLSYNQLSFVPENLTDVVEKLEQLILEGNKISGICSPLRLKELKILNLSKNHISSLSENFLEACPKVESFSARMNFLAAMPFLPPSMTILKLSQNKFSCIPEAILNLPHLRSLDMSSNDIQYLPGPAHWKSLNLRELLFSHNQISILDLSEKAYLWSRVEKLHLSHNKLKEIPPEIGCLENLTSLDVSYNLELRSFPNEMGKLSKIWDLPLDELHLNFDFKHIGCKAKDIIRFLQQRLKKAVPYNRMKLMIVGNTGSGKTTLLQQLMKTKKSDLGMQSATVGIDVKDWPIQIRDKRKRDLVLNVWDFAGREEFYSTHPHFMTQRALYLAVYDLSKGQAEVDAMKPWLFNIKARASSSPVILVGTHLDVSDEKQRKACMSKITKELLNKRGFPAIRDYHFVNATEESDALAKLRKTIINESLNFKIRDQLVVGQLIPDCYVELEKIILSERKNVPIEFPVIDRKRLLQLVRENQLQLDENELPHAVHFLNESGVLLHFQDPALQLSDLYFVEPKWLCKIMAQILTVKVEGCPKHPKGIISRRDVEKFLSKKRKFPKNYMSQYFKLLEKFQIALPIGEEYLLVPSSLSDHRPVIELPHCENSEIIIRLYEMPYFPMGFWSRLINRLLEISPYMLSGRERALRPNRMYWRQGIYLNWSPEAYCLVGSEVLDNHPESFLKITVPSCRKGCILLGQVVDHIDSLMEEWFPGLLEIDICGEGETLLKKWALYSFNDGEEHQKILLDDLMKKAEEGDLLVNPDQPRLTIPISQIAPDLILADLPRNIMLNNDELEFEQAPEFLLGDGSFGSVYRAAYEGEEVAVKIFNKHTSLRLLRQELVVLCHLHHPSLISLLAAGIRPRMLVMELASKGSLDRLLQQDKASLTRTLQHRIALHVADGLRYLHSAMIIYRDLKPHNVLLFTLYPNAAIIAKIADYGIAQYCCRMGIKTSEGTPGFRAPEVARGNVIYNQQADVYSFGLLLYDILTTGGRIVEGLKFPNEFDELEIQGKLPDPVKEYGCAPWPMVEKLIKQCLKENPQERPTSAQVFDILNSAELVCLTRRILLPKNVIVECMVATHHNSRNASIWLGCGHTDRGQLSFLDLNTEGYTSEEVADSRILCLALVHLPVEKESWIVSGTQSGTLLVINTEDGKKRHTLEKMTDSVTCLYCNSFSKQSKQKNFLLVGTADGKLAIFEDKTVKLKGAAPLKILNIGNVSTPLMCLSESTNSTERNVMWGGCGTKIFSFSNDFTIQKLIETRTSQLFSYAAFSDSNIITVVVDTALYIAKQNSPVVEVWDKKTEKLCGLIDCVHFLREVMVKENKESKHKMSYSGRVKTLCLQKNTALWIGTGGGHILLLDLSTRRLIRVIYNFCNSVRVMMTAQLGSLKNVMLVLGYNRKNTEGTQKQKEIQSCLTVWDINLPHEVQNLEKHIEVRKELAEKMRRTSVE
T1 sequence (Q5S007 whole entry G2019S): as the sequence (Q5S007 whole entry) above, with G2019S counted along it

SMILES	IC50 [1]	IC50 [2]
COCn1cc(Nc2ncc3cc(C#N)n([C@H]4COC[C@@H]4C)c3n2)c(O[C@@H]2CO[C@H]2C)n1 (mixture of isomers) [Example 39, 2-[[1-(methoxymethyl)-3-[(trans)-2-methyloxetan-3-yl]oxy-pyrazol-4-yl]amino]-7-[(3R,4R)-4-methyltetrahydrofuran-3-yl]pyrrolo[2,3-d]pyrimidine-6-carbonitrile]	8 nM	10 nM
CO[C@H]1COC[C@H]1n1c(C#N)cc2cnc(Nc3cn(C4COC4)nc3OC(C)C(F)(F)F)nc21 (mixture of isomers) [Example 54, 7-((3R,4R)-4-Methoxytetrahydrofuran-3-yl)-2-((1-(oxetan-3-yl)-3-((1,1,1-trifluoropropan-2-yl)oxy)-1 H-pyrazol-4-yl)amino)-7H-pyrrolo[2,3-d]pyrimidine-6-carbonitrile]	27 nM	61 nM
[2H]C([2H])([2H])n1cc(Nc2ncc3cc(C#N)n(C4COCC4C)c3n2)c(OC2CCC2(C)O)n1 (mixture of isomers) [Example 142, 2-((3-((1S,2S)-2-hydroxy-2-methylcyclobutoxy)-1-(methyl-d3)-1 H-pyrazol-4-yl)amino)-7-((3R,4R)-4-methyltetrahydrofuran-3-yl)-7H-pyrrolo[2,3-d]pyrimidine-6-carbonitrile and 2-((3-((1 R,2R)-2-hydroxy-2-methylcyclobutoxy)-1-(methyl-d3)-1 H-pyrazol-4-yl)amino)-7-((3R,4R)-4-methyltetrahydrofuran-3-yl)-7H-pyrrolo[2,3-d]pyrimidine-6-carbonitrile]	5 nM	3 nM
COC[C@H](C)n1c(C#N)cc2cnc(Nc3cn(CCO)nc3OC3CCOC3)nc21 (mixture of isomers) [Example 151, 2-((1-(2-hydroxyethyl)-3-((tetrahydrofuran-3-yl)oxy)-1 H-pyrazol-4-yl)amino)-7-((S)-1-methoxypropan-2-yl)-7H-pyrrolo[2,3-d]pyrimidine-6-carbonitrile]	27 nM	31 nM
CC(C(F)F)n1cc(Nc2ncc3cc(C#N)n([C@H]4COC[C@@H]4C)c3n2)c(OC2CC2)n1 (mixture of isomers) [Example 43, 2-((3-cyclopropoxy-1-(1,1-difluoropropan-2-yl)-1H-pyrazol-4-yl)amino)-7-((3R,4R)-4-methyltetrahydrofuran-3-yl)-7H-pyrrolo[2,3-d]pyrimidine-6-carbonitrile]	1 nM	2 nM
CC(C)Oc1nn(C)cc1Nc1ncc2cc(C#N)n([C@@H]3COC[C@@H]3C)c2n1 (racemic) [Example 47, 2-((3-isopropoxy-1-methyl-1 H-pyrazol-4-yl)amino)-7-((cis)-4-methyltetrahydrofuran-3-yl)-7H-pyrrolo[2,3-d]pyrimidine-6-carbonitrile]	31 nM	36 nM
CO[C@@H]1COC[C@H]1n1c(C#N)cc2cnc(Nc3cn(C)nc3OC3COC3)nc21 (racemic) [Example 70, 7-((trans)-4-methoxytetrahydrofuran-3-yl)-2-((1-methyl-3-(oxetan-3-yloxy)-1 H-pyrazol-4-yl)amino)-7H-pyrrolo[2,3-d]pyrimidine-6-carbonitrile]	160 nM	270 nM
CO[C@@H]1COC[C@H]1n1c(C#N)cc2cnc(Nc3ccc(C(C)(C)O)cc3OC3COC3)nc21 (racemic) [Example 71, 2-((4-(2-hydroxypropan-2-yl)-2-(oxetan-3-yloxy)phenyl)amino)-7-((trans)-4-methoxytetrahydrofuran-3-yl)-7H-pyrrolo[2,3-d]pyrimidine-6-carbonitrile]	69 nM	109 nM
C[C@@H]1COC[C@H]1Oc1nn(C)cc1Nc1ncc2cc(C#N)n([C@H]3COC[C@@H]3C)c2n1 (single isomer, unassigned) [Example 2]	5 nM	5 nM
C[C@@H]1COC[C@H]1Oc1nn(C)cc1Nc1ncc2cc(C#N)n([C@H]3COC[C@@H]3C)c2n1 (single isomer, unassigned) [Example 3]	4 nM	5 nM
CC(C(F)F)n1cc(Nc2ncc3cc(C#N)n([C@H]4COC[C@@H]4C)c3n2)c(OC2COC2)n1 (single isomer, unassigned) [Example 4]	1 nM	1 nM
CC(C(F)F)n1cc(Nc2ncc3cc(C#N)n([C@H]4COC[C@@H]4C)c3n2)c(OC2COC2)n1 (single isomer, unassigned) [Example 5]	5 nM	4 nM
C[C@@H]1OC[C@H]1Oc1nn(C)cc1Nc1ncc2cc(C#N)n([C@H]3COC[C@@H]3C)c2n1 (single isomer, unassigned) [Example 6]	4 nM	5 nM
C[C@@H]1OC[C@H]1Oc1nn(C)cc1Nc1ncc2cc(C#N)n([C@H]3COC[C@@H]3C)c2n1 (single isomer, unassigned) [Example 7]	2 nM	2 nM
CC(Oc1nn(C2COC2)cc1Nc1ncc2cc(C#N)n([C@H]3COC[C@@H]3C)c2n1)C(F)(F)F (single isomer, unassigned) [Example 10]	1 nM	1 nM
CC(Oc1nn(C2COC2)cc1Nc1ncc2cc(C#N)n([C@H]3COC[C@@H]3C)c2n1)C(F)(F)F (single isomer, unassigned) [Example 11]	19 nM	27 nM
CO[C@@H]1COC[C@H]1Oc1nn(C)cc1Nc1ncc2cc(C#N)n([C@H]3COC[C@@H]3C)c2n1 (single isomer, unassigned) [Example 12]	6 nM	8 nM
CO[C@@H]1COC[C@H]1Oc1nn(C)cc1Nc1ncc2cc(C#N)n([C@H]3COC[C@@H]3C)c2n1 (single isomer, unassigned) [Example 13]	9 nM	13 nM
CC(Oc1nn(C)cc1Nc1ncc2cc(C#N)n([C@H]3COC[C@@H]3C)c2n1)C(F)(F)F (single isomer, unassigned) [Example 21]	1 nM	1 nM
CC(Oc1nn(C)cc1Nc1ncc2cc(C#N)n([C@H]3COC[C@@H]3C)c2n1)C(F)(F)F (single isomer, unassigned) [Example 22]	25 nM	30 nM
[2H]C([2H])([2H])n1cc(Nc2ncc3cc(C#N)n([C@H]4COC[C@@H]4C)c3n2)c(O[C@H]2CO[C@H]2C)n1 (single isomer, unassigned) [Example 23]	8 nM	10 nM
C[C@H]1COC[C@H]1n1c(C#N)cc2cnc(Nc3cn(C)nc3OC3COC3)nc21 (single isomer, unassigned) [Example 45, 2-((1-methyl-3-(oxetan-3-yloxy)-1 H-pyrazol-4-yl)amino)-7-((cis)-4-methyltetrahydrofuran-3-yl)-7H-pyrrolo[2,3-d]pyrimidine-6-carbonitrile]	35 nM	46 nM
C[C@H]1COC[C@H]1n1c(C#N)cc2cnc(Nc3cn(C)nc3OC3COC3)nc21 (single isomer, unassigned) [Example 46, 2-((1-methyl-3-(oxetan-3-yloxy)-1 H-pyrazol-4-yl)amino)-7-((cis)-4-methyltetrahydrofuran-3-yl)-7H-pyrrolo[2,3-d]pyrimidine-6-carbonitrile]	413 nM	489 nM
CO[C@H]1COC[C@H]1n1c(C#N)cc2cnc(Nc3cn(C(C)C#N)nc3OC(C)C)nc21 (single isomer, unassigned) [Example 56]	4 nM	7 nM
C[C@@H]1OC[C@H]1n1c(C#N)cc2cnc(Nc3cn(C)nc3OC3COC3)nc21 (single isomer, unassigned) [Example 76, 7-[(trans)-2-methyloxetan-3-yl]-2-[[1-methyl-3-(oxetan-3-yloxy)pyrazol-4-yl]amino]pyrrolo[2,3-d]pyrimidine-6-carbonitrile]	200 nM	241 nM
C[C@@H]1OC[C@H]1n1c(C#N)cc2cnc(Nc3cn(C)nc3OC3COC3)nc21 (single isomer, unassigned) [Example 77, 7-[(trans)-2-methyloxetan-3-yl]-2-[[1-methyl-3-(oxetan-3-yloxy)pyrazol-4-yl]amino]pyrrolo[2,3-d]pyrimidine-6-carbonitrile]	21 nM	34 nM
CC(C)Oc1nn(C)cc1Nc1ncc2cc(C#N)n([C@@H]3CO[C@H]3C)c2n1 (single isomer, unassigned) [Example 78, 7-[(trans)-2-methyloxetan-3-yl]-2-[(1-methyl-3-propan-2-yloxypyrazol-4-yl)amino]pyrrolo[2,3-d]pyrimidine-6-carbonitrile]	64 nM	79 nM
COC[C@H](C)n1c(C#N)cc2cnc(Nc3cn(C)nc3O[C@@H]3CO[C@H]3C)nc21 (single isomer, unassigned) [Example 87]		8 nM
[2H]C([2H])([2H])n1cc(Nc2ncc3cc(C#N)n([C@@H](C)COC)c3n2)c(O[C@@H]2CO[C@H]2C)n1 (single isomer, unassigned) [Example 89]		9 nM
